Assay results as given in patent publication US8309560B2, “Methods and compositions for ameliorating the undesirable effects of chemotherapy” (Sound Pharmaceuticals Incorporated, priority 2001, dated 2012).

Experiments:
[1] = system: NuTu-19 ovarian cancer cells; experiment: MTS cell viability assay of cultured NuTu-19 cells; assay type: cell-based; conditions: for inhibition of the ability of cisplatin to kill NuTu-19 ovarian cancer tumor cells in culture: single chemoprotectant plus cisplatin 43 μM (FIG. 2-4)
Method: NuTu-19 cells were plated at a density of 3,000 cells per well in 96 well culture dishes, and incubated at 37° C., in the presence of 5% carbon dioxide, for 24 hours. N-acetylcysteine, Ebselen or allopurinol were incubated for one hour, or for four hours, with the NuTu-19 cells, then cisplatin was added to the cultures which were further incubated at 37° C., in the presence of 5% carbon dioxide, for 24 hours. The NuTu-19 cells were then rinsed with media and incubated in […] cisplatin for an additional 24 hours.
The NuTu-19 cells were then rinsed twice with phosphate buffered saline (PBS), then MTS assays were performed to measure the number of living cells. MTS is an abbreviation for (3-(4,5-dimethylthiazol-2-yl)-5-(3-carboxymethoxyphenyl)-2-(4-sulfophenyl)-2H-tetrazolium. The MTS assay is a colorimetric method for determining the number of viable cells based upon physiologic catabolism of MTS to a formazan product that is soluble in tissue culture medium. The absorbance of the formazan product at 490 nm can be measured directly from a 96 well plate using a plate reader. Increased absorbance at 490 nm correlates with increased production of formazan in a well. This is typically due to more viable cells present in a well.

[2] = system: cochlear outer hair cells; experiment: Count of outer auditory hair cells in excised cochleae after cisplatin; assay type: in vivo, rat; conditions: rats, cisplatin plus Ebselen compared to cisplatin without Ebselen (FIG. 10A, 10B)
Method: (§1) Auditory Evoked Brainstem Response (ABR) was used to assess hearing in rats before and after exposure to cisplatin and chemoprotectants. Ebselen or DMSO (control vehicle) were introduced intraperitoneally into rats one hour before intraperitoneal administration of cisplatin at a dosage of 16 mg/kg body weight. Seventy two hours after delivery of cisplatin, ABR data were collected, animals were sacrificed, cochleae were collected, dissected, stained with FITC-phalloidin (to detect F-Actin in hair cells), and DAPI (to detect nuclear DNA).
Additionally, cochleae were excised from rats treated with the combination of cisplatin and Ebselen as described in this Example. Cochleae were also excised from rats treated with cisplatin and saline and DMSO (control). The number of outer auditory hair cells in the excised cochlea were counted at intervals of 0.1 mm along the cochlea. Representative results from a control rat and a treated rat are shown in FIG. 10A and FIG. 10B, respectively.

[3] = system: hearing in rats; experiment: Auditory Evoked Brainstem Response (ABR), permanent threshold shift after cisplatin; assay type: in vivo, rat; conditions: cisplatin 16 mg/kg plus Ebselen 16 mg/kg i.p., compared to cisplatin without Ebselen, 72 hours (FIG. 8)
Method: as §1

[4] = system: inner ear hair cells; experiment: Cochlea explant culture, inner ear hair cell count after cisplatin; assay type: cell-based, mouse; conditions: 43 μM cisplatin plus 47 μM Ebselen, 24 hours (FIG. 7)
Method: Three cochlea per treatment, obtained from P3-4 mouse pups, were cultured in 0.4 micrometer MilliCell-CM inserts with NeuroBasal A medium plus B27 supplement. After 24 hours in culture Ebselen was added to the medium, incubated for ten minutes, and then cisplatin was added to the medium at a final concentration of 43 μM. A first control treatment included 43 μM cisplatin. A second control treatment included 47 μM Ebselen without the addition of cisplatin. All cultures were incubated for 24 hours at 37° C. in 5% carbon dioxide.
The explants were then harvested, fixed, and stained with calbindin (which detects hair cells) and DAPI (4′,6-Diamindino-2-phenylindole; for detection of nuclear DNA).

Row | Structure (SMILES) | inhibition of the ability of cisplatin to kill NuTu-19 ovarian cancer tumor cells in culture [1] | percentage of outer hair cells missing in cochleae [2] | permanent threshold shift (PTS) in hearing at 8, 16, 24 and 32 kHz [3] | number of inner ear hair cells (protection from damage by cisplatin in vitro) [4] | percentage of live, cultured NuTu-19 ovarian cancer cells ([1]; incubation for 24 hours in the presence of cisplatin (FIG. 1))
1 | O=c1c2ccccc2[se]n1-c1ccccc1 [Ebselen, 2-phenyl-1,2-benzoisoselenazol-3(2H)-one] | does not inhibit | less | less | protects | –
2 | CC(=O)N[C@@H](CS)C(=O)O [N-acetylcysteine, N-acetyl-L-Cysteine] | does not inhibit | – | – | – | –
3 | Oc1ncnc2[nH]ncc12 [allopurinol, 4-hydroxypyrazolo[3,4-d]pyrimidine] | does not inhibit | – | – | – | –
4 | N.N.[Cl][Pt][Cl] [cisplatin, cis-diamminedichloroplatinum] | – | – | – | – | killed
